Assay results published in ChEMBL document CHEMBL5291721, “A preclinical secondary pharmacology resource illuminates target-adverse drug reaction associations of marketed drugs” (Nat Commun, 2023).

Legend:
[1] = molecular target: T1, Peroxisome proliferator-activated receptor gamma (Homo sapiens, UniProt P37231); format: functional
T1 sequence (P37231 whole entry): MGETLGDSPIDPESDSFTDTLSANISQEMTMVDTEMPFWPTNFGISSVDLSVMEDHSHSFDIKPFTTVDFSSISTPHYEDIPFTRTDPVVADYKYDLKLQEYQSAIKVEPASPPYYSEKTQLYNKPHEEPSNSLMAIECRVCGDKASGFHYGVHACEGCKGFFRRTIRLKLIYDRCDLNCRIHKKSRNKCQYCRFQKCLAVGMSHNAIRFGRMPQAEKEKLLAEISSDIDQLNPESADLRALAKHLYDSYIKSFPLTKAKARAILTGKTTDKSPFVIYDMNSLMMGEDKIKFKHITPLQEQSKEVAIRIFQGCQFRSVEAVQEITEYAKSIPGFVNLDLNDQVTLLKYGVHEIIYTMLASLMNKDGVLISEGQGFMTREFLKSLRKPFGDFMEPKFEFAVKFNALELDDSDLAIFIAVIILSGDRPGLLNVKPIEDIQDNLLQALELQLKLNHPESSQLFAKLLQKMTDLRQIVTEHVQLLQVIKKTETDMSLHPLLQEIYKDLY

[2] = molecular target: T2, Androgen receptor (Rattus norvegicus, UniProt P15207); format: functional
T2 sequence (P15207 whole entry): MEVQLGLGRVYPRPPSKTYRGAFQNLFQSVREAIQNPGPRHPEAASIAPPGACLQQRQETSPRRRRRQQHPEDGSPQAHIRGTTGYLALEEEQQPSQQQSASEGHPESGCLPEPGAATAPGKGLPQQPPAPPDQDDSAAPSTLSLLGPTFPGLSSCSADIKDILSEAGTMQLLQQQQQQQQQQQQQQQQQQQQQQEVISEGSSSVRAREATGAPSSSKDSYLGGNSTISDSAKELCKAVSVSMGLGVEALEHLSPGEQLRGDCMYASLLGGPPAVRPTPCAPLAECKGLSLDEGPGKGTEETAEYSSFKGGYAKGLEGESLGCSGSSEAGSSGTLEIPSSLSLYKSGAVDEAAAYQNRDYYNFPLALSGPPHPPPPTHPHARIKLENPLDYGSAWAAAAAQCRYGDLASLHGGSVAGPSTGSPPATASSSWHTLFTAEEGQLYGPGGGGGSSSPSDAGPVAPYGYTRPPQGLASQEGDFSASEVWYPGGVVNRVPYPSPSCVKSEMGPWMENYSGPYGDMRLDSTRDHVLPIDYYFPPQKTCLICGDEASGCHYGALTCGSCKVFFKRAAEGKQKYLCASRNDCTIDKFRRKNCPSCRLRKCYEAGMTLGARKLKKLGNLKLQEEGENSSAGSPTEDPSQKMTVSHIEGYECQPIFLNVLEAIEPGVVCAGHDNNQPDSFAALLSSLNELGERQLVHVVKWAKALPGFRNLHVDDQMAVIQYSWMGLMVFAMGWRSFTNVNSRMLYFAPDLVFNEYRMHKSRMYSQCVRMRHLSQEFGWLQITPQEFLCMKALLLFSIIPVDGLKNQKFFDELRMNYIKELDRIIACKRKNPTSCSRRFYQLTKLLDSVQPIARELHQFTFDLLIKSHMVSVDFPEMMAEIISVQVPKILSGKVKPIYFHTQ

[3] = molecular target: T3, Gastric inhibitory polypeptide receptor (Homo sapiens, UniProt P48546)
T3 sequence (P48546 whole entry): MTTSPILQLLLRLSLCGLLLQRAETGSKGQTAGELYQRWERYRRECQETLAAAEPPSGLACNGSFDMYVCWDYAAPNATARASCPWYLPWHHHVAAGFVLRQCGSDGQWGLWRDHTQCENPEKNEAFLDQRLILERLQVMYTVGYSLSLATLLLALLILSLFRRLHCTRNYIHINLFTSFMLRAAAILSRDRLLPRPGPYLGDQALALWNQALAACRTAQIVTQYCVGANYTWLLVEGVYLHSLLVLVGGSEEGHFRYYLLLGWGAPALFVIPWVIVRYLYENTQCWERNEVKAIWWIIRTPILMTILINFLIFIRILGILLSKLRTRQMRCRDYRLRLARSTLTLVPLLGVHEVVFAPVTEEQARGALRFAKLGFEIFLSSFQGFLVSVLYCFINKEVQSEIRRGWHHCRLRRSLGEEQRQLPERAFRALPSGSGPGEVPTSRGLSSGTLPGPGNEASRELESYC

[4] = molecular target: T4, B1 bradykinin receptor (Homo sapiens, UniProt P46663)
T4 sequence (P46663 whole entry): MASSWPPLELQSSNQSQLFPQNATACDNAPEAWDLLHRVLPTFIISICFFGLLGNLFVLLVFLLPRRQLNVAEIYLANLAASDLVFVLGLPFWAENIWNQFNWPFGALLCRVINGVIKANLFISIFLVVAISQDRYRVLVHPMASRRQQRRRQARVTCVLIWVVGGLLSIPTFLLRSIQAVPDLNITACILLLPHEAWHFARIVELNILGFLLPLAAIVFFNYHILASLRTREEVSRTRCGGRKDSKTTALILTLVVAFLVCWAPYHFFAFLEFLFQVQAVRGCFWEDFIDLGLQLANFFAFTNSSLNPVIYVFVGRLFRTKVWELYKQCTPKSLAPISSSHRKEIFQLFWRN
Also: assay procedure not described here.

**Q.** For `CC(=N)N1CC[C@H](SC2=C(C(=O)O)N3C(=O)[C@H]([C@@H](C)O)[C@H]3C2)C1`, which AC50 [1] is on record?
**A.** > 300 µM

**Q.** What about the AC50 [2] of the same compound?
**A.** > 300 µM

**Q.** `CC1(C)S[C@@H]2[C@H](NC(=O)[C@H](N)c3ccc(O)cc3)C(=O)N2[C@H]1C(=O)O` [AMOXICILLIN] was tested. Which AC50 [3] did it give?
**A.** > 30 µM

**Q.** What about the AC50 [4] of the same compound?
**A.** > 30 µM

**Q.** What about the AC50 [2] of the same compound?
**A.** > 30 µM

**Q.** With `CNCC[C@@H](Oc1ccccc1C)c1ccccc1` [ATOMOXETINE] as the compound, how does the AC50 [2] read?
**A.** > 30 µM

**Q.** For `CCc1oc2ccccc2c1C(=O)c1cc(Br)c(O)c(Br)c1` [BENZBROMARONE], which AC50 [2] is on record?
**A.** > 30 µM

**Q.** `C=C(C)[C@@H]1CCC(C)=C[C@H]1c1c(O)cc(CCCCC)cc1O` [CANNABIDIOL] was tested. Which AC50 [2] did it give?
**A.** > 30 µM

**Q.** Which AC50 [1] does the source give for `CO/N=C(\C(=O)N[C@@H]1C(=O)N2C(C(=O)O)=C(COC(N)=O)CS[C@H]12)c1ccco1` [CEFUROXIME] here?
**A.** > 30 µM

**Q.** What does the source list for `Clc1cccc(Cl)c1N=C1NCCN1` [CLONIDINE]?
**A.** AC50 [3]: > 30 µM; AC50 [4]: > 30 µM

**Q.** What does the source list for `COC(=O)[C@H](c1ccccc1Cl)N1CCc2sccc2C1` [CLOPIDOGREL]?
**A.** AC50 [3]: > 30 µM; AC50 [1]: > 30 µM; AC50 [4]: > 30 µM

**Q.** With `CN1C[C@H](C(=O)N[C@]2(C)O[C@@]3(O)[C@@H]4CCCN4C(=O)[C@H](Cc4ccccc4)N3C2=O)C[C@@H]2c3cccc4[nH]cc(c34)C[C@H]21` [DIHYDROERGOTAMINE] as the compound, how does the AC50 [3] read?
**A.** > 30 µM

**Q.** What about the AC50 [4] of the same compound?
**A.** > 30 µM

**Q.** For `C#Cc1cccc(Nc2ncnc3cc(OCCOC)c(OCCOC)cc23)c1` [ERLOTINIB], which AC50 [1] is on record?
**A.** > 30 µM

**Q.** With `CC1(C)O[C@@H]2C[C@H]3[C@@H]4C[C@H](F)C5=CC(=O)C=C[C@]5(C)[C@H]4[C@@H](O)C[C@]3(C)[C@]2(C(=O)CO)O1` [FLUNISOLIDE] as the compound, how does the AC50 [1] read?
**A.** > 30 µM

**Q.** How did the AC50 [1] turn out when `C[C@H]1Oc2cc(cnc2N)-c2c(nn(C)c2C#N)CN(C)C(=O)c2ccc(F)cc21` [LORLATINIB] was run?
**A.** > 30 µM

**Q.** And the AC50 [2]?
**A.** > 30 µM

**Q.** Which AC50 [3] does the source give for `Cc1cnc(NC(=O)C2=C(O)c3ccccc3S(=O)(=O)N2C)s1` [MELOXICAM] here?
**A.** > 30 µM

**Q.** What about the AC50 [4] of the same compound?
**A.** > 30 µM

**Q.** How did the AC50 [2] turn out when `CC[C@@H](CO)NC(=O)[C@@H]1C=C2c3cccc4[nH]cc(c34)C[C@H]2N(C)C1` [METHYLERGONOVINE] was run?
**A.** 18 µM

**Q.** How did the AC50 [1] turn out when `CN(C)c1cc(CNCC(C)(C)C)c(O)c2c1C[C@H]1C[C@H]3[C@H](N(C)C)C(O)=C(C(N)=O)C(=O)[C@@]3(O)C(O)=C1C2=O` [OMADACYCLINE] was run?
**A.** > 30 µM

**Q.** What about the AC50 [2] of the same compound?
**A.** > 30 µM

**Q.** For `COc1ccnc(C[S+]([O-])c2nc3ccc(OC(F)F)cc3[nH]2)c1OC` (stereo not given) [PANTOPRAZOLE], which AC50 [3] is on record?
**A.** > 30 µM

**Q.** What about the AC50 [4] of the same compound?
**A.** > 30 µM

**Q.** How did the AC50 [2] turn out when `COc1ccc(Cc2nccc3cc(OC)c(OC)cc23)cc1OC` [PAPAVERINE] was run?
**A.** > 30 µM

**Q.** What does the source list for `CNC[C@H](O)c1cccc(O)c1` [PHENYLEPHRINE]?
**A.** AC50 [3]: > 30 µM; AC50 [4]: > 30 µM

**Q.** With `O=C1NC(=O)C(c2ccccc2)(c2ccccc2)N1` [PHENYTOIN] as the compound, how does the AC50 [3] read?
**A.** > 30 µM

**Q.** What about the AC50 [1] of the same compound?
**A.** > 30 µM

**Q.** What about the AC50 [4] of the same compound?
**A.** > 30 µM

**Q.** What does the source list for `CC(C)C[C@H](CN)CC(=O)O` [PREGABALIN]?
**A.** AC50 [3]: > 30 µM; AC50 [1]: > 30 µM; AC50 [4]: > 30 µM

**Q.** For `CNC(=O)c1cc(Oc2ccc(NC(=O)Nc3ccc(Cl)c(C(F)(F)F)c3)c(F)c2)ccn1` [REGORAFENIB], which AC50 [2] is on record?
**A.** > 30 µM

**Q.** With `CCOc1cc(CC(=O)N[C@@H](CC(C)C)c2ccccc2N2CCCCC2)ccc1C(=O)O` [REPAGLINIDE] as the compound, how does the AC50 [1] read?
**A.** > 30 µM

**Q.** What about the AC50 [2] of the same compound?
**A.** > 30 µM

**Q.** `O=C(Nc1c(Cl)cncc1Cl)c1ccc(OC(F)F)c(OCC2CC2)c1` [ROFLUMILAST] was tested. Which AC50 [2] did it give?
**A.** > 30 µM

**Q.** Which AC50 [3] does the source give for `CCCN(CCC)CCc1cccc2c1CC(=O)N2` [ROPINIROLE] here?
**A.** > 30 µM

**Q.** And the AC50 [1]?
**A.** > 30 µM

**Q.** What about the AC50 [4] of the same compound?
**A.** > 30 µM

**Q.** Which AC50 [1] does the source give for `CCCN(CCc1cccs1)[C@H]1CCc2c(O)cccc2C1` [ROTIGOTINE] here?
**A.** > 30 µM

**Q.** And the AC50 [2]?
**A.** > 30 µM

**Q.** `CC[C@H]1OC(=O)[C@H](C)[C@@H](O[C@H]2C[C@@](C)(OC)[C@@H](O)[C@H](C)O2)[C@H](C)[C@@H](O[C@@H]2O[C@H](C)C[C@H](N(C)C)[C@H]2O)[C@](C)(O)C[C@@H](C)/C(=N\OCOCCOC)[C@H](C)[C@@H](O)[C@]1(C)O` [ROXITHROMYCIN] was tested. Which AC50 [1] did it give?
**A.** > 30 µM

**Q.** With `CC(C)N(CCCCOCC(=O)NS(C)(=O)=O)c1cnc(-c2ccccc2)c(-c2ccccc2)n1` [SELEXIPAG] as the compound, how does the AC50 [2] read?
**A.** > 30 µM

**Q.** Which results are given for `CC(=O)S[C@@H]1CC2=CC(=O)CC[C@]2(C)[C@H]2CC[C@@]3(C)[C@@H](CC[C@@]34CCC(=O)O4)[C@H]12` [SPIRONOLACTONE]?
**A.** AC50 [3]: > 30 µM; AC50 [1]: > 30 µM; AC50 [4]: > 30 µM

**Q.** Which results are given for `CCCCNc1ccc(C(=O)OCCN(C)C)cc1` [TETRACAINE]?
**A.** AC50 [3]: > 30 µM; AC50 [4]: > 30 µM

**Q.** With `Cn1c(=O)c2[nH]cnc2n(C)c1=O` [THEOPHYLLINE] as the compound, how does the AC50 [4] read?
**A.** > 30 µM

**Q.** For `CC1(C)O[C@@H]2[C@@H](CO[C@@]3(COS(N)(=O)=O)OC(C)(C)O[C@@H]23)O1` [TOPIRAMATE], which AC50 [3] is on record?
**A.** > 30 µM

**Q.** And the AC50 [4]?
**A.** > 30 µM
